Data from patent publication US20110135603A1, “INHIBITORS OF PHOSPHATIDYLINOSITOL 3-KINASE” (VERTEX PHARMACEUTICALS INCORPORATED, priority 2008, published 2011).
Where two headings read alike, the source gives them in different places.

Tests used:
PI3Kγ = PI3Kγ (Homo sapiens, UniProt P48736); experiment: PI3K Inhibition Assay (33P-ATP, PI(4,5)P2 substrate), PI3Kγ isoform; assay type: biochemical; settings: 2 nM final enzyme, 3 μM ATP, 30 μM PI(4,5)P2; competitive tight binding Ki fit
Protocol: (§1) Using a Biomek FX from Beckman Coulter, 1.5 μL of each of ten 2.5-fold serial dilutions of a compound of the invention in 100% DMSO was added to an individual well (hereafter, “test well”) in a 96 well polystyrene plate [Corning, Costar Item No. 3697]. One test well also contained 1.5 μL of DMSO with no compound. […] Using a Titertek Multidrop, 50 μL of Reaction Mix [100 mM HEPES pH 7.5, 50 mM NaCl, 10 mM DTT, 0.2 mg/mL BSA, 60 μM phosphatidylinositol(4,5)bisphosphate diCl6 (PI(4,5)P2; Avanti Polar Lipids, Cat. No. 840046P) and PI3K isoform of interest (see Table 3 for isoform concentrations)] was added to each well. To initiate the reaction, 50 μL of ATP Mix [20 mM MgCl2, 6 μM ATP (100 μCi/μmole ^33P-ATP)] was added each well, followed by incubating the wells for 30 min. at 25° C. Final concentrations in each well were 50 mM HEPES 7.5, 10 mM MgCl2, 25 mM NaCl, 5 mM DTT, 0.1 mg/mL BSA, 30 μM PI(4,5)P2, 3 μM ATP, and the PI3K isoform of interest (see Table 3). Final compound concentrations in each well ranged from 10 μM to 1 nM.
(§2) After incubation, the reactions in each well were quenched by addition of 50 μL of stop solution [30% TCA/Water, 10 mM ATP]. Each quenched reaction mixture was then transferred to a 96 well glass fiber filter plate [Corning, Costar Item No. 3511]. The plate was vacuum-filtered and washed three times with 150 μL of 5% TCA/water in a modified Bio-Tek Instruments ELX-405 Auto Plate Washer. 50 μL of scintillation fluid was added to each well and the plate read on a Perkin-Elmer TopCount™ NXT liquid scintillation counter to obtain ^33P-counts representing inhibition values.
(§3) The value for the background well was subtracted from the value obtained for each test well and the data were fit to the competitive tight binding Ki equation described by Morrison and Stone, Comments Mol. Cell. Biophys. 2: 347-368, 1985.

PI3Kα = PI3Kα (Homo sapiens, UniProt P42336); experiment: PI3K Inhibition Assay (33P-ATP, PI(4,5)P2 substrate), PI3Kα isoform; assay type: biochemical; settings: 2 nM final enzyme, 3 μM ATP, 30 μM PI(4,5)P2; competitive tight binding Ki fit
Sequence of PI3Kα (P42336 whole entry, species assumed, canonical isoform): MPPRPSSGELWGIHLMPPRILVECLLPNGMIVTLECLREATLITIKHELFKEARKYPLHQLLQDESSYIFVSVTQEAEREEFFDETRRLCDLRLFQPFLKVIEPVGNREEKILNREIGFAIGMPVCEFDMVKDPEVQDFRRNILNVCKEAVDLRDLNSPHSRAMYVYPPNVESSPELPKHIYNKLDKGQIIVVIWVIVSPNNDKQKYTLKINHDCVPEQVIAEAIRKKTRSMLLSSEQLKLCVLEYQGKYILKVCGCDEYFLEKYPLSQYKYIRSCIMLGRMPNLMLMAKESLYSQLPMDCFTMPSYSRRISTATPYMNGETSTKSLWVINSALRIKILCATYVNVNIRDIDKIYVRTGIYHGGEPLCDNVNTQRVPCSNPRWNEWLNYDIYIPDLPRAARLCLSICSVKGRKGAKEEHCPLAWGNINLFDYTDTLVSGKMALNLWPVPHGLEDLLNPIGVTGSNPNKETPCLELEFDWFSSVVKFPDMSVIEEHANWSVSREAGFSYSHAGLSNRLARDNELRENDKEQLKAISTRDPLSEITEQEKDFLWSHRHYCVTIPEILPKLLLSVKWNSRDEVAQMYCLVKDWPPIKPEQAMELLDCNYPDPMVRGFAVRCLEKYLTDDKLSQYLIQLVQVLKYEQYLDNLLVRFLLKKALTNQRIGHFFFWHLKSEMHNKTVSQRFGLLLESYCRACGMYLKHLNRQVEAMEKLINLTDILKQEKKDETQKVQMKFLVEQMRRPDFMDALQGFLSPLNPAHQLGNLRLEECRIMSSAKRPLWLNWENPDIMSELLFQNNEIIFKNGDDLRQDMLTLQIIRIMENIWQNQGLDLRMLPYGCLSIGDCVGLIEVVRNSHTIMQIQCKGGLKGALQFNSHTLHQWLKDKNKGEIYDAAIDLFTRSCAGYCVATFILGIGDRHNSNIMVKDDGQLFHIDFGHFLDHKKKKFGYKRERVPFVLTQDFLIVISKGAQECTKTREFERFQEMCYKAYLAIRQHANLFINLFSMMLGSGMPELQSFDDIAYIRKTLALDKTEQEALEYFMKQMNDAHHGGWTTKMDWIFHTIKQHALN
Sequence of PI3Kα (P27986 whole entry partner, species assumed, canonical isoform): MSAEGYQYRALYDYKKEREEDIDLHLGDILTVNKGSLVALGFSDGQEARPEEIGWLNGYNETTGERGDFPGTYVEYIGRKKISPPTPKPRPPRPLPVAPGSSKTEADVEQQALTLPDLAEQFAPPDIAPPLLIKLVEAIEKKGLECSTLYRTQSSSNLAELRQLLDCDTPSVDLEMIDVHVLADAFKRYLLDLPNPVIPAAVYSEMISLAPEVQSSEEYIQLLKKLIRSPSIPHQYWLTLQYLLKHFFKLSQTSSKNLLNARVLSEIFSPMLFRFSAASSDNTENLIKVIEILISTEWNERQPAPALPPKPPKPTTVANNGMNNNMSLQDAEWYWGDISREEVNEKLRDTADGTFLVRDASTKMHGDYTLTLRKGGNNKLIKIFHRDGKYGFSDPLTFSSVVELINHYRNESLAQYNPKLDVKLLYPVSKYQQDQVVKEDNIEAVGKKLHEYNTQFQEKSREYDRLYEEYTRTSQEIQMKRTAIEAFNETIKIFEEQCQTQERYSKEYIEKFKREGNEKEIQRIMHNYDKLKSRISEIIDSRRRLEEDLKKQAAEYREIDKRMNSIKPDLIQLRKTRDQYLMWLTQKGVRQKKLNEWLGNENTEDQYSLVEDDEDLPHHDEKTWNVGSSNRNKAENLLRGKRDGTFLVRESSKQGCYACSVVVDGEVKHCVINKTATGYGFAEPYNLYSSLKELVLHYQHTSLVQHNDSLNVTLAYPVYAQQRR
Protocol: as §1, §2, §3

[1] = Evaluation of Brain/Plasma Concentrations; assay type: in vivo; settings: Sprague-Dawley rats; for concentration at 2 h: 10 mg/kg oral intragastric in 0.5% MC, two hours after administration; for Kp at 2 h: 10 mg/kg oral, two hours, average brain/plasma ratio based on data obtained for each animal
Protocol: Selected compounds of the invention were evaluated for their ability to cross the blood-brain barrier. Accordingly, a compound of the invention was administered to Sprague-Dawley rats [10 mg/kg as a 1 mg/mL 0.5% MC solution] via oral intragastric delivery. Two hours after compound administration, the rats were anaesthetized by intramuscular administration of a 2 mL/kg Ketamine/Rompun/Acepromazine cocktail and placed onto necropsy table. The abdominal cavity was then opened with a V-cut and 300 microliters of blood was drawn directly from left ventricle for plasma concentration analysis. The blood sample was stored on ice in a 1.5 mL Eppendorf tube (containing K2EDTA) and subsequently centrifuged for 2 minutes at 2000 rpm. After centrifugation, 110 microliters of plasma was transferred to a fresh tube and stored at −70° C. until analysis. The rat was perfused with cold saline (containing 50 IU of heparin) at 20 mL/min from an infusion pump through the left ventricle of the heart. Immediately after starting the perfusion, a small cut in the right atria was made so that heparinized saline would flow through the body. The perfusion was continued until the liver appeared pale in color (about 60 mL of cold saline). The brain was removed and placed on ice, blotted dry, weighed, placed in a tube, frozen with liquid nitrogen, and stored at −70° C. until further analysis was performed.
In order to determine compound concentration in the plasma, the blood sample was prepared by protein precipitation with addition of acetonitrile at a ratio of 1:4. After vortexing and centrifugation, the supernatant was analyzed by high performance liquid chromatography-tandem mass spectrometry in positive Atmospheric Pressure Chemical Ionization (APCI) ionization mode. The analysis was done using reverse-phase high performance liquid chromatography with a 5.0 μm Xterra C18 analytical column (2.1×50 mm). Mobile phase was consists of a mixture of 10 mM ammonium acetate and acetonitrile running in a 1.5 minutes linear gradient. Aliquots of the matrix were spiked with known concentrations of the compound of interest and an internal standard. Study samples were spiked with the internal standard alone. The calibration curve generally contains final concentrations in the control matrix of 1 to 5000 ng/mL. The calibration curve was analyzed and the instrument response (area counts for compound of interest/Area Counts for internal Standard) are used to generate a calibration curve. The instrument response for study samples were compared to the calibration curve and the concentration back-calculated from the curve.
In order to determine compound concentration in the brain, the brain sample was thawed to RT, and a 0.5 weight equivalent of water was added to the sample. The sample was then completely homogenized. Two to four volumes of acetonitrile were added to the brain homogenate, the homogenate mixed and the sample centrifuged to remove protein. Similar to the method used to obtain blood concentrations, an aliquot of the sample homogenate supernatant was injected onto an LC/MS/MS running a gradient suitable for detecting the compound of interest. The instrument response was compared to the instrument response from calibration samples of brain homogenate spiked with known concentrations of compound in order to determine the brain concentration.

[2] = system: experimental autoimmune encephalomyelitis (EAE); experiment: Experimental autoimmune encephalomyelitis (EAE) mouse model of multiple sclerosis; assay type: in vivo; settings: prophylactic administration, contrasted with animals administered vehicle alone
Excerpt: See, for example, Keszthelyi et al., Neurology, 1996, 47:1053-1059.

[3] = based on a density of rat plasma of 1.0 g/mL, read-out: Plasma Conc.
[4] = rat, brain, average of two or three animals, read-out: Brain Conc.

Sequence of PI3Kγ (P48736 whole entry, species assumed, canonical isoform): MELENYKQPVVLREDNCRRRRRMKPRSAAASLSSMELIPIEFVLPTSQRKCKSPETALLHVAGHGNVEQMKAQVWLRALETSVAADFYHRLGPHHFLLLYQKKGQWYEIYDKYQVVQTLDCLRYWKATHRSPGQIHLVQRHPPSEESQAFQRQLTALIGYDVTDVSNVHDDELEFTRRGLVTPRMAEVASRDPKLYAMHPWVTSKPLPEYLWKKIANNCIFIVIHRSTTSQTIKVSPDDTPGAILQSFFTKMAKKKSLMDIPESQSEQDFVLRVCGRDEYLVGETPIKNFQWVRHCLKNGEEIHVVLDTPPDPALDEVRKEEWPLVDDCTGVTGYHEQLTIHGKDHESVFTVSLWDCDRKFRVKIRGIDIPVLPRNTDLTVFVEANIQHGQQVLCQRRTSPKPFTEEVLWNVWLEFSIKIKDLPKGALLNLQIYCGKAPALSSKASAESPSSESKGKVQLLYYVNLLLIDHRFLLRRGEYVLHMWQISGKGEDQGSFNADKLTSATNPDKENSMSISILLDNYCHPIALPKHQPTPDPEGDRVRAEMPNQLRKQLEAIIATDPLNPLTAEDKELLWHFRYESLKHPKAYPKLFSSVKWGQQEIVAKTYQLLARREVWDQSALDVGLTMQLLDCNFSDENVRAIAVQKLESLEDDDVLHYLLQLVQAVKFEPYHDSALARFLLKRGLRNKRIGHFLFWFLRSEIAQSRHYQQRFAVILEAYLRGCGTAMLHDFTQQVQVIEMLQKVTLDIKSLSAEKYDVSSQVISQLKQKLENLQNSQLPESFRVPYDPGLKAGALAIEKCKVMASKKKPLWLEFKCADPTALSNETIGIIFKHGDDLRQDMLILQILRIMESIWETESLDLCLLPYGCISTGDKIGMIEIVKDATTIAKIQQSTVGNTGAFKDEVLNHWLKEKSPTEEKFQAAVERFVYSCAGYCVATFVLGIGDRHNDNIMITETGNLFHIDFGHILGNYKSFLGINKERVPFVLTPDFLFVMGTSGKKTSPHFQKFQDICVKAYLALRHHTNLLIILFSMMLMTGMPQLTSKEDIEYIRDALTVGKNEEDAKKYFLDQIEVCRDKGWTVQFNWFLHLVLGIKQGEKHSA

Ki (PI3Kγ) [nM]	Ki (PI3Kα) [nM]	concentration at 2 h [1, 3] [ng/mL]	concentration at 2 h [1, 4] [ng/g]	Kp at 2 h ([1]; rat)	SMILES	Effect on disease in EAE [2]
10 to 100	100 to 4000	197	157	0.8	CCCOCCNC(=O)Nc1nc2ccc(-c3cncc(C(F)(F)F)c3)nc2s1 [Compound 1, 1-(5-(5-(trifluoromethyl)pyridin-3-yl)thiazolo[5,4-b]pyridin-2-yl)-3-(2-propoxyethyl)urea]	
10 to 100	100 to 4000				CCCOCCCNC(=O)Nc1nc2ccc(-c3cncc(C(F)(F)F)c3)nc2s1 [Compound 2]	
10 to 100	100 to 4000				CC(C)OCCCNC(=O)Nc1nc2ccc(-c3cncc(C(F)(F)F)c3)cc2s1 [Compound 3, 1-(6-(5-(trifluoromethyl)pyridin-3-yl)benzo[d]thiazol-2-yl)-3-(3-isopropoxypropyl)urea]	
≤ 10	10 to 100	985	662	0.7	COCCCNC(=O)Nc1nc2ccc(-c3cncc(C(F)(F)F)c3)nc2s1 [Compound 10]	disease suppression
≤ 10	100 to 4000	210	55	0.3	CCOCCCNC(=O)Nc1nc2ccc(-c3cncc(C(F)(F)F)c3)nc2s1 [Compound 11]	
≤ 10	10 to 100				CCNC(=O)Nc1nc2ccc(-c3cncc(C(F)(F)F)c3)nc2s1 [Compound 13]	
